In PubChem BioAssay (NCI):
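Each compound was tested at five concentrations against cells in 96-well plates for 48 hours. GI50 is the concentration that inhibits growth by half. TGI is the concentration that stops growth completely.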

What was measured:
Experiment in all cases: DTP human tumour cell line panel, 48 h
SN12C renal = system: SN12C renal
A498 renal = system: A498 renal
SF-268 CNS = system: SF-268 CNS
UACC-62 melanoma = system: UACC-62 melanoma
OVCAR-8 ovarian = system: OVCAR-8 ovarian
ACHN renal = system: ACHN renal
SK-MEL-2 melanoma = system: SK-MEL-2 melanoma
U251 CNS = system: U251 CNS
OVCAR-4 ovarian = system: OVCAR-4 ovarian
TK-10 renal = system: TK-10 renal

| Structure (SMILES) | TGI (SN12C renal) | TGI (A498 renal) | TGI (SF-268 CNS) | TGI (UACC-62 melanoma) | TGI (OVCAR-8 ovarian) | TGI (ACHN renal) | TGI (SK-MEL-2 melanoma) | TGI (U251 CNS) | TGI (OVCAR-4 ovarian) | TGI (TK-10 renal) | GI50 (SN12C renal) | GI50 (A498 renal) | GI50 (SF-268 CNS) | GI50 (UACC-62 melanoma) | GI50 (OVCAR-8 ovarian) | GI50 (ACHN renal) | GI50 (SK-MEL-2 melanoma) | GI50 (OVCAR-4 ovarian) | GI50 (TK-10 renal) |
| --- | --- | --- | --- | --- | --- | --- | --- | --- | --- | --- | --- | --- | --- | --- | --- | --- | --- | --- | --- |
| CCOC1=NC(O)c2cccn2-c2sccc21 (centres undefined) | > 100 µM | > 100 µM | > 100 µM | > 100 µM | > 100 µM | > 100 µM | > 100 µM | > 100 µM | > 100 µM | > 100 µM |  |  |  |  |  |  |  |  |  |
| N#Cc1[nH]c(=O)n(-c2ccccc2)c1N | > 10 µM | > 10 µM | > 10 µM | > 10 µM | > 10 µM | > 10 µM | > 10 µM | > 10 µM | > 10 µM | > 10 µM |  |  |  |  |  |  |  |  |  |
| O=C(c1ccco1)N(C(=S)OCCOc1ccccc1)c1ccccc1 | 39.1 µM | 33.1 µM | 35.3 µM | 32.7 µM | 38.2 µM | 53.4 µM | 41.1 µM | 30.2 µM | 57.3 µM | 55.2 µM |  |  |  |  |  |  |  |  |  |
| COC(=O)c1cc2c(cc1CC(Cc1ccc3c(c1)CCCC3)C(=O)OC)CCCC2 (centres undefined) | > 100 µM | > 100 µM | > 100 µM | > 100 µM | > 100 µM | > 100 µM | > 100 µM | > 100 µM | 71.1 µM | > 100 µM |  |  |  |  |  |  |  |  |  |
| O=C(NCP(=O)(c1ccccc1)c1ccccc1)OCc1ccccc1 | > 100 µM | > 100 µM | > 100 µM | > 100 µM | > 100 µM | > 100 µM | > 100 µM | > 100 µM | > 100 µM | > 100 µM |  |  |  |  |  |  |  |  |  |
| CN(C(=O)Cc1cccc(N=C=S)c1)[C@H]1CCCC[C@@H]1N1CCCC1 | 29.5 µM | 32.8 µM | 36.4 µM | 29.4 µM | 42.2 µM | 27.2 µM | 34.4 µM | 32.3 µM | 28.5 µM | 24.3 µM |  |  |  |  |  |  |  |  |  |
| CCOC(=O)c1cc2c3ccn(Cc4ccccc4)c3c3c(C)[nH]oc3c2n1 | > 100 µM | > 100 µM | > 100 µM | > 100 µM | > 100 µM | > 100 µM | > 100 µM | > 100 µM | > 100 µM | > 100 µM |  |  |  |  |  |  |  |  |  |
| COC(=O)c1cc2c(cc1Cl)Sc1nnc(Nc3ccc(C)cc3)n1S2(=O)=O | 36.5 µM | 28.9 µM | 10.9 µM | 26 µM | 40.4 µM | 8.8 µM | 9.16 µM | 17 µM | 10.7 µM | 27.7 µM |  |  |  |  |  |  |  |  |  |
| CCOC(=O)c1c(N2CCOCC2)[nH]c(=O)c(C(c2c(Cl)cccc2Cl)c2c(O)c(C(=O)OCC)c(N3CCOCC3)[nH]c2=O)c1O | 11.4 µM | 20.9 µM | 22.2 µM | 20 µM | 20.5 µM | 13 µM | 16.2 µM | 15.8 µM | 24.1 µM | 14.3 µM |  |  |  |  |  |  |  |  |  |
| CC(=O)O[C@H]1C(=O)[C@@]2(C)C(C(OC(=O)c3ccccc3)[C@]3(O)CC(OC(=O)C(O)C(NC(=O)c4ccc(C(F)(F)F)cc4)c4ccccc4)C(C)=C1C3(C)C)[C@]1(OC(C)=O)CO[C@@H]1C[C@@H]2O (some centres undefined) | 11.6 µM | > 37.5 µM | 5.3 µM | 0.269 µM | 2.44 µM | > 37.5 µM | 0.284 µM | 2.43 µM | > 37.5 µM | > 37.5 µM |  |  |  |  |  |  |  |  |  |
| O=c1cc(N2CCCC2)[nH]c(=O)n1-c1cccc(Cl)c1 | > 100 µM | > 100 µM | > 100 µM | > 100 µM | > 100 µM | > 100 µM | > 100 µM | > 100 µM | > 100 µM | > 100 µM |  |  |  |  |  |  |  |  |  |
| C1=Cc2cc3c(c4nccc(c24)N1)OCO3 | > 39.2 µM | > 85.1 µM | 28.9 µM | 32.2 µM | > 46.8 µM | > 34.4 µM | 36.6 µM | > 100 µM | > 46.6 µM | > 80.1 µM |  |  |  |  |  |  |  |  |  |
| CCOC(=O)c1cn2c(n1)sc1cc(Cl)ccc12 | > 100 µM | > 100 µM | > 100 µM | > 100 µM | > 100 µM | > 100 µM | > 100 µM | 60.7 µM | > 100 µM | > 100 µM |  |  |  |  |  |  |  |  |  |
| CN(C)CCCN=c1c2ccccc2n(O)c2ccccc12 | > 100 µM | > 100 µM | > 100 µM | > 100 µM | > 100 µM | > 100 µM | > 100 µM | > 100 µM | > 100 µM | > 100 µM |  |  |  |  |  |  |  |  |  |
| COc1cc2oc(-c3ccc(O)cc3)c(OC)c(=O)c2c(O)c1OC | > 100 µM | > 100 µM | > 100 µM | > 100 µM | > 100 µM | > 100 µM | > 100 µM | > 100 µM | > 100 µM | > 100 µM | 33.7 µM | 11 µM | 79 µM | 79.3 µM | 86.1 µM | 35.8 µM | 39.2 µM | 99.2 µM | 62.4 µM |
| Cn1c(O)c(C(=O)NC2CCCCC2)c(=O)n(C)c1=S | 59.9 µM | 13 µM | 21.6 µM | 14.4 µM | 17.9 µM | 13.7 µM | 15 µM | 26.7 µM | 42.7 µM | 33.3 µM |  |  |  |  |  |  |  |  |  |
| CCCCCCCCCCCC(=O)OCC(C[As](=O)(O)O)OC(=O)CCCCCCCCCCC (centres undefined) | 8.27 µM | 17.7 µM | > 34.1 µM | 3.95 µM | 24.8 µM | 5.04 µM | 12.1 µM | 2.93 µM | 33.3 µM | 30.6 µM |  |  |  |  |  |  |  |  |  |
